# Assay results as given in patent US8710184B2, “Motilin-like peptide compound having transmucosal absorbability imparted thereto” (Daiichi Sankyo Company, Limited, priority 2009, dated 2014).
# Values joined by “and” are separate entries in the source; they are usually repeats but may differ in a detail not shown here. Equal entries are not always repeated. No end group written: not given here.
# How the values were obtained:
# [1] = tested on: conscious dog's gastrointestinal tract; test: Fasting IMC inducing activity in conscious dogs (force transducers); type: in vivo
# Description: More specifically, dogs under anesthesia were subjected to a surgical operation in which force transducers were sutured to the serous membranes of the gastric antrum, duodenum, jejunum and ileum along the ring-shaped muscle and, thereafter, the strain from each transducer was sent to a recorder via an amplifier.
# [2] = Pharmacokinetic experiment on intravenously administered native motilin in rats (RIA); type: in vivo; conditions: male, SD, rat, plasma, 100 ug/kg, intravenous, 100 μg/kg
# Protocol: Native motilin was administered intravenously to rats and its plasma levels were measured.
# As test animals, 7-wk old male SD rats (purchased from CHARLES RIVER LABORATORIES JAPAN, INC.) that consisted of 3 rats per a group were subjected to the following experiment. Native motilin was dissolved in a 5% mannitol solution to prepare a solution at a concentration of 100 μg/mL and this solution was administered to each rat at a dose of 1 mL/kg through the tail vein by means of a syringe and a 26G needle (both being products of TERUMO).
# [3] = Pharmacokinetic experiment on pulmonarily administered native motilin and motilin derivative compounds in rats (RIA); type: in vivo, rat; conditions: for Cmax / AUC: male, SD, plasma; for Cmax / AUC / BA: 25 μg/rat; for AUC: trapezoidal method; for BA: relative to AUC of intravenous native motilin
# Protocol: As test animals, 7- to 10-wk old male SD rats (purchased from CHARLES RIVER LABORATORIES JAPAN, INC.) that consisted of 3 rats per a group were subjected to the following experiment. Native motilin or motilin derivative compounds were dissolved in an aqueous solution of 0.1 N acetic acid to prepare a solution at a concentration of 1 mg/mL and 25 μL of the solution was administered into the polyethylene tube through the trachea by means of an intratracheal liquid spraying device (MicroSprayer; product of Penn Century). […] In the measurement, the respective derivatives were used as standard substances to construct calibration curves for determining the plasma levels.
# Using these values, bioavailability (BA (%)) was calculated by the following equation: BA(%)=[(AUC/Dose)/(AUC(motilin—iv)/Dose(motilin—iv))]×100 • AUC: AUC (ng·min/mL) after pulmonary administration • Dose: dose (μg/kg) in pulmonary administration • AUC (motilin_iv): AUC (ng·min/mL) after intravenous administration of native motilin • Dose (motilin_iv): dose (μg/kg) in intravenous administration of native motilin.
# [4] = in vivo; conditions: male, cynomolgus monkey, iv, 10 ug/kg
# Protocol: In this example, native motilin and a motilin derivative compound were administered intravenously to monkeys and their plasma concentrations were measured.
# As test animals, 8- to 9-year old male cynomolgus monkeys (N=1-2 per group) were subjected to the following experiment. Native motilin and compound 2 were each dissolved in a 5% mannitol solution to prepare solutions at a concentration of 100 μg/mL; the solutions were administered to the animals at a dose of 0.1 mL/kg through the right cephalic vein by means of a syringe and a needle (both being products of TERUMO). Before administration and 5, 10, 15, 20, 30 and 60 minutes after administration, blood was sampled through the left cephalic vein.
# To the collected sample, a 10% EDTA.2Na.2H2O solution was immediately added at a volume ratio of 1:100 and the plasma was separated by centrifugation. The plasma was immediately mixed with a 5,000 IU/mL aprotinin solution at a volume ratio of 1:10 and stored at −80° C. until use in measurement.
# Measurement of the plasma concentrations of native motilin and the motilin derivative compound was conducted by the radioimmunoassay (RIA) technique using an anti-motilin antibody. Stated more specifically, after adding an anti-motilin antibody to the plasma sample, [^125I-Tyr7] motilin was added for a competitive reaction to take place. By subsequent addition of a secondary antibody, the motilin binding to the anti-motilin antibody was precipitated and after separating the supernatant, the radioactivity in the precipitating faction was measured with a γ-counter (product of PerkinElmer).
# From the obtained profiles for the plasma concentrations of native motilin and the motilin derivative compound, the plasma concentration at time zero (C0) and the area under curve for plasma concentrations (AUC) were calculated as pharmacokinetic parameters; C0 was determined by extrapolation and AUC by the trapezoidal method.
# [5] = Pharmacokinetic experiment on intranasally administered native motilin and a motilin derivative compound in monkeys (RIA); type: in vivo, cynomolgus monkey; conditions: intranasal administration; for BA: relative to intravenous AUC of each compound; for AUC / Cmax: male, cynomolgus monkey, plasma, inhaled or intranasal, mean for N = 1-2
# Protocol: This example was conducted with a view to measuring by RIA the changes that occurred in monkeys in terms of the plasma concentrations of transnasally administered native motilin and a motilin derivative compound.
# In the experiment, 10- to 11-year old male cynomolgus monkeys were used. Native motilin or compound 2 and microcrystalline cellulose were mixed at a ratio of 1:40 to prepare intranasal preparations, 20-mg portions of which were filled into gelatin capsules. Each capsule was administered into the right nasal cavity of each animal by means of an intranasal administration device (product of Hitachi Automotive Systems, Ltd.). Before administration and 5, 10, 15, 20, 30, 60, 120 and 180 minutes after administration, blood was sampled through the cephalic vein. The collected blood sample was treated as in Comparative Example 2 to separate plasma and the concentrations of native motilin and the motilin derivative compound in plasma were measured by RIA. In the measurement, the respective derivatives were used as standard substances to construct calibration curves for determining the plasma levels.
# Using these values, bioavailability (BA (%)) was calculated by the following equation: BA(%)=[(AUC/Dose)/(AUC(iv)/Dose(iv))]×100 • AUC: AUC (ng·min/mL) after intranasal administration • Dose: dose (μg/kg) in intranasal administration • AUC (iv): AUC (ng·min/mL) after intravenous administration of each compound • Dose (iv): dose (μg/kg) in intravenous administration of each compound.
# [6] = HPLC fractionation and RIA of rat plasma after pulmonary administration (unaltered form vs metabolites); type: in vivo
# Protocol: This example was conducted with a view to measuring by RIA the changes that occurred in rats in terms of the plasma concentrations of pulmonarily administered native motilin and motilin derivative compounds. When the RIA technique is applied, all substances that react with the anti-motilin antibody are detected, so aside from unaltered forms, metabolites that react with the antibody are also likely to be detected.
# To be more specific, a polyethylene tube (PE-240; product of Clay Adams) was inserted into the trachea of 7-wk old male SD rats (purchased from CHARLES RIVER LABORATORIES JAPAN, INC.); native motilin or compound 2 (MT114) was dissolved in an aqueous solution of 0.1 N acetic acid to prepare a solution at a concentration of 1 mg/mL and 25 μL of the solution was administered into the polyethylene tube through the trachea by means of an intratracheal liquid spraying device (MicroSprayer; product of Penn Century). Five minutes after the administration, blood was sampled through the abdominal aorta and treated as in Comparative Example 1 to separate plasma. […] For each sample, an eluate was sampled at one-minute intervals from just after the sample injection to a 40-minute after sample injection and the immunological activity in each fraction was measured by RIA.
# [7] = Motilin degradation experiment using a lung homogenate supernatant; type: in vitro ADME
# Description: To solve this problem, the present inventors first assumed that motilin might be degraded after noninvasive transmucosal administration and performed a motilin degradation experiment using a lung homogenate supernatant.
# [8] = Non-Patent Document 18; cited from earlier work
# [9] = other: pulmonary administration (intratracheal liquid spray)
# [10] = inhaled or intranasal, 25 ug/animal, pulmonary administration
molecule,measurement,setting,value
"CC[C@H](C)[C@H](NC(=O)[C@@H]1CCCN1C(=O)[C@@H](NC(=O)[C@@H](N)Cc1ccccc1)C(C)C)C(=O)N[C@@H](Cc1ccccc1)C(=O)N[C@H](C(=O)N[C@@H](Cc1ccc(O)cc1)C(=O)NCC(=O)N[C@@H](CCC(=O)O)C(=O)N[C@@H](CC(C)C)C(=O)N[C@@H](CCC(N)=O)C(=O)N[C@@H](CCCNC(=N)N)C(=O)N[C@@H](CCSC)C(=O)N[C@@H](CCC(N)=O)C(=O)N[C@@H](CCC(=O)O)C(=O)N[C@@H](CCCCN)C(=O)N[C@@H](CCC(=O)O)C(=O)N[C@@H](CCCNC(=N)N)C(=O)N[C@@H](CC(N)=O)C(=O)N[C@@H](CCCCN)C(=O)NCC(=O)N[C@@H](CCC(N)=O)C(=O)O)[C@@H](C)O [Native motilin, reference compound]",IMC Inducing activity,"[1]; fasting period, intravenous, 0.1 μg/kg",Positive
same,duration of contraction of the duodenum,"[1]; intravenous 0.1 μg/kg, FIG. 1",about 10 minutes
same,duration of contraction of the gastric antrum,"[1]; intravenous 0.1 μg/kg, FIG. 1",about 10 minutes
same,C0,"[2]; by extrapolation, read-out: plasma concentration at time zero (C0)",1800 ng/mL
same,AUC,"[2]; trapezoidal method, read-out: area under curve for plasma concentrations (AUC) (converted)",60 ng·h/mL
same,Cmax,[3]; [9],7.84 ± 0.98 ng/mL
same,AUC,[3]; [9],1.58 ng·h/mL
same,BA,[3]; pulmonary administration,3.3 ± 0.1%
same,BA,"[3]; pulmonary administration, listed as native motilin",3.3%
same,AUC,[4],13.1 ng·h/mL
same,C0,[4],233 ng/mL
same,BA,[5],3.6%
same,AUC,[5]; 0.49 mg/animal,4.02 ng·h/mL
same,Cmax,[5]; 0.49 mg/animal,13.6 ng/mL
same,immunological activity peaks in HPLC fractions of plasma,"[6]; rat, in vivo",detected only at the elution point corresponding to the administered compound (in unaltered form)
same,degradation in lung homogenate supernatant,[7],found to be degraded
atilmotin,half-life in plasma,[8],about 10 minutes
FVPIFTYGELQRLQEKERNKPQ [Compound 2],Cmax,[3]; [10],26.6 ± 11.3 ng/mL
same,AUC,[3]; [10],5.84 ng·h/mL
same,BA,[3]; pulmonary administration,10.4% and 10.4 ± 4.3%
same,profile of plasma concentration compared with native motilin,"[3]; pulmonary administration, FIG. 3",high peak levels
same,AUC,[4],15.4 ng·h/mL
same,C0,[4],273 ng/mL
same,profile of plasma concentration compared with native motilin,[5]; FIG. 5,a high peak level
same,BA,[5],5.1%
same,AUC,[5],6.02 ng·h/mL
same,Cmax,[5],23.5 ng/mL
same,immunological activity peaks in HPLC fractions of plasma,"[6]; rats, pulmonary administration, plasma 5 minutes after administration",detected only at the elution point corresponding to the administered compound (in unaltered form)
